Like-named read-outs stand apart in the source and are kept apart here. Where a SMILES comes first, the peptide text is derived from it. Bridges are numbered along the chain shown (N, C = ends). [ ]: non-standard residue; d: D form. ξ: configuration not given here. Phe(4-F) = N[C@@H](Cc1ccc(F)cc1)C(=O)O; Bta = N[C@@H](Cc1csc2ccccc12)C(=O)O; NMeIle(3ξ) = CCC(C)[C@H](NC)C(=O)O; Hyp = O=C(O)[C@@H]1C[C@@H](O)CN1; NMeF = CN[C@@H](Cc1ccccc1)C(=O)O; NMehSer = CN[C@@H](CCO)C(=O)O; NMeNle = CCCC[C@H](NC)C(=O)O; Tle = CC(C)(C)[C@H](N)C(=O)O; hSer = N[C@@H](CCO)C(=O)O; NMeA = CN[C@@H](C)C(=O)O; Orn = NCCC[C@H](N)C(=O)O; Dab = NCC[C@H](N)C(=O)O; Dap = NC[C@H](N)C(=O)O; ξC = NC(CS)C(=O)O; Sar = CNCC(=O)O

This assay deals with T1, Human PD-L1/PD-1 (Homo sapiens, UniProt Q9NZQ7).
T1 construct: TVMV protease cleavage site (C); made in house; host or cells: HEK293T cells
Put plainly: HTRF Human PD-L1/PD-1 binding assay (PD-1-Ig/PD-L1-His). Conditions: PD-L1-His 10 nM, PD-1-Ig 20 nM. A digest of the protocol:
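HTRF read-out (665/620 nm ratio) after 30 min equilibration with Eu-cryptate anti-Ig mAb (1 nM) and APC anti-His mAb (20 nM). Peptides preincubated 15 min with PD-L1-His (10 nM), then PD-1-Ig (20 nM) added for 15 min.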

Setting [1] is: class symbol, read-out: HTRF Human PD-L1/PD-1 Binding Assay IC50 Range.

T1 sequence (Q9NZQ7 with tags, fused parts or gaps): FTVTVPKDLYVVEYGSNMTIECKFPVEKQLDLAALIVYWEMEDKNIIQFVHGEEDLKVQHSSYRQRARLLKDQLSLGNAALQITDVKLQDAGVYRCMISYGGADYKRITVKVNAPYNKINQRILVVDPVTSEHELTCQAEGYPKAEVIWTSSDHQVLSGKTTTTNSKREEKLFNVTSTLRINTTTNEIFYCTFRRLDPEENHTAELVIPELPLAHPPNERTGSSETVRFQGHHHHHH

Regarding `CCCC[C@H]1C(=O)N(C)[C@@H](CCCC)C(=O)N[C@@H](CC(C)C)C(=O)N[C@H](C(=O)NCC(N)=O)CSCC(=O)N[C@@H](Cc2ccc(OC)cc2)C(=O)N(C)[C@@H](C)C(=O)N[C@@H](CC(N)=O)C(=O)N2CCC[C@H]2C(=O)N[C@@H](Cc2c[nH]cn2)C(=O)N[C@@H](CCC(N)=O)C(=O)N2C[C@H](O)C[C@H]2C(=O)N[C@@H](Cc2c[nH]c3ccccc23)C(=O)N[C@@H](CO)C(=O)N[C@@H](Cc2c[nH]c3ccccc23)C(=O)N1C` [Example 7135] ({CH2CO}-Y(Me)[NMeA]NPHQ[Hyp]WSW[NMeNle][NMeNle]LCG-NH2; thioether N-14), the IC50 (read-out: HTRF Human PD-L1/PD-1 Binding Assay IC50) was 5.6 nM. Regarding `CCCC[C@H]1C(=O)N2CCC[C@@H]2C(=O)N[C@@H](CC(=O)O)C(=O)N[C@@H](C(C)C)C(=O)N(C)[C@@H](C(C)CC)C(=O)N[C@@H](CCC(N)=O)C(=O)N2CCC[C@@H]2C(=O)N[C@@H](Cc2c[nH]c3ccccc23)C(=O)N[C@@H](Cc2ccc(O)cc2)C(=O)N[C@@H](CCCN)C(=O)N[C@H](C(=O)NCC(N)=O)CSCC(=O)N[C@@H](Cc2ccc(F)cc2)C(=O)N(C)[C@@H](Cc2ccccc2)C(=O)N1C` (some centres unmarked) [Example 9262] ({CH2CO}-[Phe(4-F)][NMeF][NMeNle][dP]DV[NMeIle(3ξ)]Q[dP]WY[Orn]CG-NH2; thioether N-13), under setting [1], the IC50 lay within 1000 to 10000 nM.

With `CCCC[C@H]1C(=O)N(C)[C@@H](CCCC)C(=O)N[C@@H](CC(C)C)C(=O)N[C@H](C(=O)NCC(N)=O)CSCC(=O)N[C@@H](Cc2ccc(O)cc2)C(=O)N(C)[C@@H](C)C(=O)N[C@@H](CC(N)=O)C(=O)N2CCC[C@H]2C(=O)N[C@@H](Cc2c[nH]cn2)C(=O)N[C@@H](CCCCNC(C)=O)C(=O)N2C[C@H](O)C[C@H]2C(=O)N[C@@H](Cc2c[nH]c3ccccc23)C(=O)N[C@@H](CCN)C(=O)N[C@@H](Cc2c[nH]c3ccccc23)C(=O)N1C` [Example 5228] ({CH2CO}-Y[NMeA]NPHK(Ac)[Hyp]W[Dab]W[NMeNle][NMeNle]LCG-NH2; thioether N-14), the IC50 under setting [1] was 1 to 9.9 nM. The same measure, in the same setting: then `CCCC[C@H]1C(=O)N(C)[C@@H](CCCC)C(=O)N[C@@H](CCN)C(=O)NC(C(=O)NCC(N)=O)CSCC(=O)N[C@@H](Cc2ccc(O)cc2)C(=O)N(C)[C@@H](C)C(=O)N[C@@H](CC(N)=O)C(=O)N2CCC[C@H]2C(=O)N[C@@H](CC(N)=O)C(=O)N[C@@H](CC(C)C)C(=O)N2C[C@H](O)C[C@H]2C(=O)N[C@@H](Cc2c[nH]c3ccccc23)C(=O)N[C@@H](CO)C(=O)N[C@@H](Cc2csc3ccccc23)C(=O)N1C` (some centres unmarked) [Example 9165] ({CH2CO}-Y[NMeA]NPNL[Hyp]WS[Bta][NMeNle][NMeNle][Dab][ξC]G-NH2; thioether N-14), with 1 to 9.9 nM. Same read-out and setting: then `CCCC[C@H]1C(=O)N(C)[C@@H](CCCC)C(=O)N[C@@H](CCC(=O)O)C(=O)N[C@H](C(=O)NCC(N)=O)CSCC(=O)N[C@@H](Cc2ccc(O)cc2)C(=O)N2C[C@H](O)C[C@H]2C(=O)N[C@@H](CC(N)=O)C(=O)N2CCC[C@H]2C(=O)N[C@@H](Cc2cnc[nH]2)C(=O)N[C@@H](CCC(=O)O)C(=O)N2C[C@H](O)C[C@H]2C(=O)N[C@@H](Cc2c[nH]c3ccccc23)C(=O)N[C@@H](CO)C(=O)N[C@@H](Cc2c[nH]c3ccccc23)C(=O)N1C` [Example 1283] ({CH2CO}-Y[Hyp]NPHE[Hyp]WSW[NMeNle][NMeNle]ECG-NH2; thioether N-14), with 10 to 99.9 nM; and `CCCC[C@H]1C(=O)N(C)[C@@H](CCCC)C(=O)N[C@@H](CCC(=O)O)C(=O)N[C@H](C(=O)NCC(N)=O)CSCC(=O)N[C@@H](Cc2ccc(OC)cc2)C(=O)N(C)[C@@H](C)C(=O)N[C@@H](CC(=O)O)C(=O)N2CCC[C@H]2C(=O)N[C@@H](Cc2cnc[nH]2)C(=O)N[C@@H](CCC(=O)O)C(=O)N2C[C@H](O)C[C@H]2C(=O)N[C@@H](Cc2c[nH]c3ccccc23)C(=O)N[C@@H](CCN)C(=O)N[C@@H](Cc2c[nH]c3ccccc23)C(=O)N1C` [Example 7110] ({CH2CO}-Y(Me)[NMeA]DPHE[Hyp]W[Dab]W[NMeNle][NMeNle]ECG-NH2; thioether N-14), with 1 to 9.9 nM; and `CCCC[C@H]1C(=O)N(C)[C@@H](CCCC)C(=O)N[C@@H](CCCNC(=N)N)C(=O)NC(C(=O)NCC(N)=O)CSCC(=O)N[C@@H](Cc2ccc(O)cc2)C(=O)N(C)[C@@H](C)C(=O)N[C@@H](CC(N)=O)C(=O)N2CCC[C@H]2C(=O)N[C@@H](CO)C(=O)N[C@@H](CCO)C(=O)N2CCC[C@H]2C(=O)N[C@@H](Cc2c[nH]c3ccccc23)C(=O)N[C@@H](CO)C(=O)N[C@@H](Cc2csc3ccccc23)C(=O)N1C` (some centres unmarked) [Example 10049] ({CH2CO}-Y[NMeA]NPS[hSer]PWS[Bta][NMeNle][NMeNle]R[ξC]G-NH2; thioether N-14), with 1 to 9.9 nM. Same read-out and setting: then `CCCC[C@H]1C(=O)N(C)[C@@H](CCCC)C(=O)N[C@@H](CCC(=O)O)C(=O)N[C@H](C(=O)NCC(N)=O)CSCC(=O)N[C@@H](Cc2ccc(O)cc2)C(=O)N(C)[C@@H](C)C(=O)N[C@@H](CC(N)=O)C(=O)N2CCC[C@H]2C(=O)N[C@@H](Cc2cnc[nH]2)C(=O)N[C@@H](CCC(N)=O)C(=O)N2C[C@H](O)C[C@H]2C(=O)N[C@@H](Cc2c[nH]c3ccccc23)C(=O)N[C@@H](CCC(=O)O)C(=O)N[C@@H](Cc2c[nH]c3ccccc23)C(=O)N1C` [Example 5186] ({CH2CO}-Y[NMeA]NPHQ[Hyp]WEW[NMeNle][NMeNle]ECG-NH2; thioether N-14), with 1 to 9.9 nM; and `CCCC[C@H]1C(=O)N(C)CC(=O)N[C@@H](CC(=O)O)C(=O)N[C@@H](C(C)(C)C)C(=O)N(C)[C@@H](Cc2ccccc2)C(=O)N[C@@H](Cc2ccc(O)cc2)C(=O)N(C)CC(=O)N[C@@H](Cc2c[nH]c3ccccc23)C(=O)N[C@@H](Cc2ccc(O)cc2)C(=O)N[C@@H](CC(C)C)C(=O)N[C@H](C(=O)NCC(N)=O)CSCC(=O)N[C@@H](Cc2ccccc2)C(=O)N(C)[C@@H](Cc2ccccc2)C(=O)N1C` [Example 3211] ({CH2CO}-F[NMeF][NMeNle][Sar]D[Tle][NMeF]Y[Sar]WYLCG-NH2; thioether N-13), with 10 to 99.9 nM; and `CCCC[C@H]1C(=O)N(C)[C@@H](CCCC)C(=O)N[C@@H](CCCNC(=N)N)C(=O)NC(C(=O)NCC(N)=O)CSCC(=O)N[C@@H](Cc2ccc(O)cc2)C(=O)N(C)[C@@H](C)C(=O)N[C@@H](CC(N)=O)C(=O)N2CCC[C@H]2C(=O)N[C@@H](CC(N)=O)C(=O)N[C@@H](CC(C)C)C(=O)N2C[C@H](O)C[C@H]2C(=O)N[C@@H](Cc2c[nH]c3ccccc23)C(=O)N[C@@H](CCO)C(=O)N[C@@H](Cc2csc3ccccc23)C(=O)N1C` (some centres unmarked) [Example 9131] ({CH2CO}-Y[NMeA]NPNL[Hyp]W[hSer][Bta][NMeNle][NMeNle]R[ξC]G-NH2; thioether N-14), with 1 to 9.9 nM. With `CCCC[C@H]1C(=O)N[C@@H](CN)C(=O)N[C@H](C(=O)NCC(N)=O)CSCC(=O)N[C@@H](Cc2ccc(O)cc2)C(=O)N(C)[C@@H](C)C(=O)N[C@@H](CC(=O)O)C(=O)N2CCC[C@H]2C(=O)N[C@@H](Cc2c[nH]cn2)C(=O)N[C@@H](CCC(N)=O)C(=O)N2C[C@H](O)C[C@H]2C(=O)N[C@@H](Cc2c[nH]c3ccccc23)C(=O)N[C@@H](CO)C(=O)N[C@@H](Cc2c[nH]c3ccccc23)C(=O)N(C)[C@@H](CCOC)C(=O)N1C` [Example 10139] ({CH2CO}-Y[NMeA]DPHQ[Hyp]WSW[NMehSer](Me)[NMeNle][Dap]CG-NH2; thioether N-14), under setting [1], the IC50 is 1 to 9.9 nM.

The values above are taken from patent US10538555B2, “Macrocyclic inhibitors of the PD-1/PD-L1 and CD80(B7-1)/PD-L1 protein/protein interactions” (BRISTOL-MYERS SQUIBB COMPANY, priority 2014, dated 2020).
